The NIST ThermoML archive (doi:10.1021/acs.jced.8b00755)
Several values for one entry are separate records, joined by “and”; a condition that tells them apart may be missing. Equal values may be shown once.

Key:
[1] = refractive index (Na D-line) (dimensionless); xn = mol fraction of the nth substance listed; details: 298.15 K, 101.3 kPa, Liquid, Standard Abbe refractometry
[2] = relative permittivity at zero frequency (dimensionless); xn = mol fraction of the nth substance listed; details: 298.15 K, 101.3 kPa, Liquid, Coaxial cylinder capacitor
[3] = relative permittivity at zero frequency (dimensionless); details: 298.15 K; 101.3 kPa; Liquid; Coaxial cylinder capacitor
[4] = refractive index (Na D-line) (dimensionless); details: 298.15 K; 101.3 kPa; Liquid; Standard Abbe refractometry
[5] = 298.15 K; 101.3 kPa; Liquid; Vibrating tube method
[6] = xn = mol fraction of the nth substance listed; details: 298.15 K, 101.3 kPa, Liquid, Vibrating tube method

OC1CCCCC1 [cyclohexanol] + O=C1CCCCC1
Details | refractive index, [1] | relative permittivity at zero frequency, [2]
x1 = 0.1 | 1.4498 | 15.16
x1 = 0.2 | 1.4512 | 14.63
x1 = 0.3 | 1.4527 | 14.24
x1 = 0.4 | 1.4542 | 13.99
x1 = 0.5 | 1.4558 | 13.91
x1 = 0.6 | 1.4574 | 13.98
x1 = 0.7 | 1.4591 | 14.2
x1 = 0.8 | 1.4608 | 14.57
x1 = 0.9 | 1.4626 | 15.08
x1 = 1 | 1.4646 | 15.71

CCCCO [butan-1-ol]
Details | mass density [kg/m3] | refractive index | relative permittivity at zero frequency
[3] | – | – | 17.49
[4] | – | 1.3971 | –
[5] | 805.92 | – | –

CCCCCCO [hexan-1-ol]
Details | mass density [kg/m3] | refractive index | relative permittivity at zero frequency
[3] | – | – | 13.06
[4] | – | 1.4161 | –
[5] | 815.99 | – | –

O=C1CCCCC1 [cyclohexanone] + CCCCCCCCCCO
Details | mass density, [6] [kg/m3] | refractive index, [1] | relative permittivity at zero frequency, [2]
x2 = 0 | 942.47 | 1.4485 | 15.81
x2 = 0.1 | 922.31 | 1.4458 | 14.59
x2 = 0.2 | 904.8 | 1.4436 | 13.46
x2 = 0.3 | 889.41 | 1.4416 | 12.41
x2 = 0.4 | 875.85 | 1.4399 | 11.44
x2 = 0.5 | 863.79 | 1.4385 | 10.57
x2 = 0.6 | 853.13 | 1.4374 | 9.81
x2 = 0.7 | 843.78 | 1.4364 | 9.15
x2 = 0.8 | 836.26 | 1.4358 | 8.59
x2 = 0.9 | 830.72 | 1.4354 | 8.12

CCO [ethanol] + O=C1CCCCC1
x1 = 1
Details | mass density [kg/m3] | refractive index | relative permittivity at zero frequency
[1] | – | 1.3594 | –
[2] | – | – | 24.37
[6] | 785.26 | – | –

O=C1CCCCC1 [cyclohexanone] + CCCCCCO
Details | mass density, [6] [kg/m3] | refractive index, [1] | relative permittivity at zero frequency, [2]
x2 = 0 | 942.47 | 1.4485 | 15.81
x2 = 0.1 | 927.39 | 1.4444 | 14.93
x2 = 0.2 | 912.83 | 1.4405 | 14.2
x2 = 0.3 | 898.77 | 1.4367 | 13.59
x2 = 0.4 | 885.19 | 1.4332 | 13.13
x2 = 0.5 | 872.11 | 1.4299 | 12.79
x2 = 0.6 | 859.53 | 1.4267 | 12.58
x2 = 0.7 | 847.55 | 1.4237 | 12.5
x2 = 0.8 | 836.36 | 1.4209 | 12.57
x2 = 0.9 | 825.91 | 1.4184 | 12.76

C1CCCCC1 [cyclohexane]
Details | refractive index | relative permittivity at zero frequency
[3] | – | 2.021 and 2.02
[4] | 1.4235 | –

O=C1CCCCC1 [cyclohexanone] + CCO
Details | mass density, [6] [kg/m3] | refractive index, [1] | relative permittivity at zero frequency, [2]
x2 = 0 | 942.47 | 1.4485 | 15.81
x2 = 0.1 | 938.01 | 1.4449 | 15.84
x2 = 0.2 | 930.92 | 1.4401 | 15.98
x2 = 0.3 | 921.48 | 1.4339 | 16.36
x2 = 0.4 | 910.02 | 1.4268 | 16.97
x2 = 0.5 | 896.25 | 1.4187 | 17.76
x2 = 0.6 | 879.92 | 1.4094 | 18.72
x2 = 0.7 | 860.95 | 1.3988 | 19.88
x2 = 0.8 | 839.21 | 1.3869 | 21.19
x2 = 0.9 | 814.29 | 1.3739 | 22.68

OC1CCCCC1 [cyclohexanol] + O=C1CCCC1
x1 = 1
Details | refractive index | relative permittivity at zero frequency
[1] | 1.4646 | –
[2] | – | 15.71

CCCCO [butan-1-ol] + O=C1CCCCC1
x1 = 1
Details | mass density [kg/m3] | refractive index | relative permittivity at zero frequency
[1] | – | 1.3971 | –
[2] | – | – | 17.49
[6] | 805.92 | – | –

OC1CCCCC1 [cyclohexanol] + C1CCCCC1
Details | refractive index, [1] | relative permittivity at zero frequency, [2]
x1 = 0.02 | 1.424 | 2.084
x1 = 0.04 | 1.4245 | 2.151
x1 = 0.05 | 1.4247 | 2.184
x1 = 0.06 | 1.425 | 2.219
x1 = 0.08 | 1.4255 | 2.285
x1 = 0.1 | 1.426 | 2.354

CCCCCCCCO [octan-1-ol]
Details | mass density [kg/m3] | refractive index | relative permittivity at zero frequency
[3] | – | – | 9.85
[4] | – | 1.4276 | –
[5] | 821.98 | – | –

O=C1CCCCC1 [cyclohexanone] + CCCCO
Details | mass density, [6] [kg/m3] | refractive index, [1] | relative permittivity at zero frequency, [2]
x2 = 0 | 942.47 | 1.4485 | 15.81
x2 = 0.1 | 932.83 | 1.4441 | 15.3
x2 = 0.2 | 922.35 | 1.4396 | 14.95
x2 = 0.3 | 910.57 | 1.4347 | 14.71
x2 = 0.4 | 897.77 | 1.4301 | 14.62
x2 = 0.5 | 883.98 | 1.4253 | 14.71
x2 = 0.6 | 869.51 | 1.4204 | 14.97
x2 = 0.7 | 854.54 | 1.4147 | 15.39
x2 = 0.8 | 838.96 | 1.4086 | 15.97
x2 = 0.9 | 822.78 | 1.4035 | 16.68

O=C1CCCCC1 [cyclohexanone]
Details | mass density [kg/m3] | refractive index | relative permittivity at zero frequency
[3] | – | – | 15.81
[4] | – | 1.4485 | –
[5] | 942.47 | – | –

C1CCCCC1 [cyclohexane] + O=C1CCCCC1
x2 = 0
Details | refractive index | relative permittivity at zero frequency
[1] | 1.4235 | –
[2] | – | 2.021 and 2.02

OC1CCCCC1 [cyclohexanol]
Details | refractive index | relative permittivity at zero frequency
[3] | – | 15.71
[4] | 1.4646 | –

CCCCCCCCCCO [decan-1-ol]
Details | mass density [kg/m3] | refractive index | relative permittivity at zero frequency
[3] | – | – | 7.74
[4] | – | 1.4352 | –
[5] | 826.71 | – | –

O=C1CCCC1 [cyclopentanone] + OC1CCCCC1
Details | refractive index, [1] | relative permittivity at zero frequency, [2]
x2 = 0 | 1.4347 | 13.52
x2 = 0.1 | 1.4372 | 13.1
x2 = 0.2 | 1.4397 | 12.78
x2 = 0.3 | 1.4423 | 12.55
x2 = 0.4 | 1.445 | 12.42
x2 = 0.5 | 1.4479 | 12.43
x2 = 0.6 | 1.4509 | 12.61
x2 = 0.7 | 1.4541 | 12.99
x2 = 0.8 | 1.4575 | 13.59
x2 = 0.9 | 1.461 | 14.48

CCO [ethanol]
Details | mass density [kg/m3] | refractive index | relative permittivity at zero frequency
[3] | – | – | 24.37
[4] | – | 1.3594 | –
[5] | 785.26 | – | –

C1CCCCC1 [cyclohexane] + OC1CCCCC1
x2 = 0
Details | refractive index | relative permittivity at zero frequency
[1] | 1.4235 | –
[2] | – | 2.021

O=C1CCCCC1 [cyclohexanone] + C1CCCCC1
Details | refractive index, [1] | relative permittivity at zero frequency, [2]
x1 = 0.02 | 1.4239 | 2.189
x1 = 0.04 | 1.4243 | 2.364
x1 = 0.05 | 1.4245 | 2.467
x1 = 0.06 | 1.4247 | 2.563
x1 = 0.08 | 1.4251 | 2.746
x1 = 0.1 | 1.4255 and 1.4254 | 2.932 and 3
x1 = 0.2 | 1.4276 | 4.12
x1 = 0.3 | 1.4298 | 5.35
x1 = 0.4 | 1.4322 | 6.66
x1 = 0.5 | 1.4347 | 8.03
x1 = 0.6 | 1.4372 | 9.45
x1 = 0.7 | 1.4399 | 10.94
x1 = 0.8 | 1.4427 | 12.49
x1 = 0.9 | 1.4456 | 14.11
x1 = 1 | 1.4485 | 15.81

C1CCCCC1 [cyclohexane] + O=C1CCCC1
x2 = 0
Details | refractive index | relative permittivity at zero frequency
[1] | 1.4235 | –
[2] | – | 2.02

CCCCCCCCO [octan-1-ol] + O=C1CCCCC1
x1 = 1
Details | mass density [kg/m3] | refractive index | relative permittivity at zero frequency
[1] | – | 1.4276 | –
[2] | – | – | 9.85
[6] | 821.98 | – | –

CCCCCCO [hexan-1-ol] + O=C1CCCCC1
x1 = 1
Details | mass density [kg/m3] | refractive index | relative permittivity at zero frequency
[1] | – | 1.4161 | –
[2] | – | – | 13.06
[6] | 815.99 | – | –

O=C1CCCCC1 [cyclohexanone] + OC1CCCCC1
x2 = 0
Details | refractive index | relative permittivity at zero frequency
[1] | 1.4485 | –
[2] | – | 15.81

O=C1CCCCC1 [cyclohexanone] + CCCCCCCCO
Details | mass density, [6] [kg/m3] | refractive index, [1] | relative permittivity at zero frequency, [2]
x2 = 0 | 942.47 | 1.4485 | 15.81
x2 = 0.1 | 924.71 | 1.4456 | 14.72
x2 = 0.2 | 908.6 | 1.443 | 13.74
x2 = 0.3 | 893.85 | 1.4403 | 12.87
x2 = 0.4 | 880.35 | 1.438 | 12.12
x2 = 0.5 | 867.97 | 1.4358 | 11.47
x2 = 0.6 | 856.69 | 1.4338 | 10.93
x2 = 0.7 | 846.41 | 1.4319 | 10.5
x2 = 0.8 | 837.29 | 1.4303 | 10.18
x2 = 0.9 | 829.11 | 1.4289 | 9.97

O=C1CCCC1 [cyclopentanone]
Details | refractive index | relative permittivity at zero frequency
[3] | – | 13.52
[4] | 1.4347 | –

O=C1CCCC1 [cyclopentanone] + C1CCCCC1
Details | refractive index, [1] | relative permittivity at zero frequency, [2]
x1 = 0.1 | 1.4236 | 2.78
x1 = 0.2 | 1.4239 | 3.61
x1 = 0.3 | 1.4244 | 4.51
x1 = 0.4 | 1.4252 | 5.51
x1 = 0.5 | 1.4262 | 6.6
x1 = 0.6 | 1.4274 | 7.78
x1 = 0.7 | 1.4289 | 9.06
x1 = 0.8 | 1.4306 | 10.45
x1 = 0.9 | 1.4325 | 11.94
x1 = 1 | 1.4347 | 13.52

CCCCCCCCCCO [decan-1-ol] + O=C1CCCCC1
x1 = 1
Details | mass density [kg/m3] | refractive index | relative permittivity at zero frequency
[1] | – | 1.4352 | –
[2] | – | – | 7.74
[6] | 826.71 | – | –
